Results as given in the supplement of paper PMC10307832.

Assays:
Test in all cases: relative viability (nuclei count vs DMSO), 5 days (fraction); higher = more cells survive
Salubrinal + Phenformin = compound: O=C(/C=C/c1ccccc1)NC(NC(=S)Nc1cccc2cccnc12)C(Cl)(Cl)Cl [Salubrinal] + N=C(N)NC(=N)NCCc1ccccc1 [Phenformin] (partner 250 µM)
In short: (§1)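 Medians of duplicate plates are given as relative viability. That measure is the nuclei count in treated wells divided by the count in vehicle wells. Counts were taken on 4× images of lung cancer cell lines in 1536-well plates, 5 days after pin-tool dosing the day after seeding with one drug alone or a fixed anchor-drug dose plus five library-drug doses (not always all listed) in √10 steps.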

[1] = compound: Cc1ccc2nc(NCCN)c3ncc(C)n3c2c1 + CS(=O)(=O)N1CCN(Cc2cc3nc(-c4cccc5[nH]ncc45)nc(N4CCOCC4)c3s2)CC1 [Pictilisib] (partner 1 µM)
In short: as §1

[2] = compound: Cc1ccc2nc(NCCN)c3ncc(C)n3c2c1 + NC(=O)Nc1cc(-c2cccc(F)c2)sc1C(=O)N[C@H]1CCCNC1 [AZD7762] (partner 0.2 µM)
In short: as §1

[3] = compound: Cc1ccc2nc(NCCN)c3ncc(C)n3c2c1 + CC(=O)Nc1cccc(-n2c(=O)n(C3CC3)c(=O)c3c(Nc4ccc(I)cc4F)n(C)c(=O)c(C)c32)c1 [Trametinib] (partner 0.02 µM)
In short: as §1

Cell Line	relative viability (Salubrinal + Phenformin; first compound 0.08 µM)	relative viability (Salubrinal + Phenformin; first compound 0.253 µM)	relative viability (Salubrinal + Phenformin; first compound 0.8 µM)	relative viability (Salubrinal + Phenformin; first compound 2.53 µM)	relative viability (Salubrinal + Phenformin; first compound 8 µM)	relative viability ([1]; first compound 0.04 µM)	relative viability ([1]; first compound 0.1265 µM)	relative viability ([1]; first compound 0.4 µM)	relative viability ([1]; first compound 1.265 µM)	relative viability ([1]; first compound 4 µM)	relative viability ([2]; first compound 0.04 µM)	relative viability ([2]; first compound 0.1265 µM)	relative viability ([2]; first compound 0.4 µM)	relative viability ([2]; first compound 1.265 µM)	relative viability ([2]; first compound 4 µM)	relative viability ([3]; first compound 0.04 µM)	relative viability ([3]; first compound 0.1265 µM)	relative viability ([3]; first compound 0.4 µM)	relative viability ([3]; first compound 1.265 µM)	relative viability ([3]; first compound 4 µM)
NCI-H460	0.706	0.32	0.629	0.515	0.49	0.368	0.411	0.402	0.302	0.322	0.614	0.636	0.631	0.7	0.541	0.165	0.146	0.171	0.197	0.0969
HCC-15	0.524	0.431	0.533	0.487	0.391	0.799	0.761	0.666	0.707	0.694	1.23	1.27	1.19	1.17	1.18	0.425	0.373	0.364	0.356	0.381
LCLC-103H	0.388	0.282	0.318	0.38	0.308	0.534	0.644	0.561	0.6	0.576	0.877	0.821	0.654	0.772	0.752	0.727	0.677	0.65	0.66	0.67
NCI-H441	0.939	0.855	0.892	0.755	0.72	0.557	0.464	0.454	0.505	0.472	1.35	1.09	1.05	1.25	1.19	0.487	0.47	0.342	0.346	0.512
EPLC-272H	0.256	0.236	0.342	0.259	0.282	0.33	0.356	0.288	0.336	0.306	0.228	0.404	0.214	0.177	0.166	0.296	0.334	0.282	0.253	0.245
